Here are results for one molecule from PMC10176470, “Engaging a Non-catalytic Cysteine Residue Drives Potent and Selective Inhibition of Caspase-6” (Journal of the American Chemical Society, 2023).

Test in all cases: SILAC proteomics / in-gel fluorescence, competition of probe 13-t labeling by 3a
The target of assay [1] is proteins of HEK293T cells transiently overexpressing caspase-6 (Homo sapiens, UniProt Q13838). As to conditions: Comp; protein DDX39B Q13838.
Assay [2] addresses proteins of HEK293T cells transiently overexpressing caspase-6 (Homo sapiens, UniProt Q9H307).
The target in assay [3] is T1, proteins of HEK293T cells transiently overexpressing caspase-6 (Homo sapiens, UniProt P12236).
T1 sequence (P12236 1-298): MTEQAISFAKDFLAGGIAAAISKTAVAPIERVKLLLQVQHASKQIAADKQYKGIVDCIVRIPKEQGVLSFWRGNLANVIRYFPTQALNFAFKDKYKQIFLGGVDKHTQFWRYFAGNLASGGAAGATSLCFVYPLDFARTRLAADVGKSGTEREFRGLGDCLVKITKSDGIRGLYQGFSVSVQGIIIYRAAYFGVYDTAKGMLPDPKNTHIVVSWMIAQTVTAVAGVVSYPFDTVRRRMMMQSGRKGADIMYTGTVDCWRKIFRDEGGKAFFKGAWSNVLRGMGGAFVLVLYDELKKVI

Assay [4] deals with proteins of HEK293T cells transiently overexpressing caspase-6 (Homo sapiens, UniProt P35998). As to conditions: Comp; protein PSMC2 P35998.
Assay [5] addresses T2, proteins of HEK293T cells transiently overexpressing caspase-6 (Homo sapiens, UniProt P04075).
T2 sequence (P04075 1-364): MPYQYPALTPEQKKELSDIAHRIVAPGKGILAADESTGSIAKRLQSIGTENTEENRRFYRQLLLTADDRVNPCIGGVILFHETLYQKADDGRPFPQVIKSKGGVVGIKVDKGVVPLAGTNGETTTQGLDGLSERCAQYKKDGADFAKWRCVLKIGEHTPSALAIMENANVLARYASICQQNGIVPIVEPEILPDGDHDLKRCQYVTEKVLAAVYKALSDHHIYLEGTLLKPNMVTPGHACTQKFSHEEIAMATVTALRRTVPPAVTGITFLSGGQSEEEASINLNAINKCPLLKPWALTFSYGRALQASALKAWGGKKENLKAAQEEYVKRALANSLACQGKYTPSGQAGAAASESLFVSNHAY
The note with it: Comp; protein ALDOA P04075.

The target in assay [6] is proteins of HEK293T cells transiently overexpressing caspase-6 (Homo sapiens, UniProt P14625). As to conditions: Comp; protein HSP90B1 P14625.
In assay [7] the target is proteins of HEK293T cells transiently overexpressing caspase-6 (Homo sapiens, UniProt O00299). The note with it: Comp; protein CLIC1 O00299.
The target of assay [8] is proteins of HEK293T cells transiently overexpressing caspase-6 (Homo sapiens, UniProt P05141). The note with it: Comp; protein SLC25A5 P05141.
The target of assay [9] is T3, proteins of HEK293T cells transiently overexpressing caspase-6 (Homo sapiens, UniProt Q8WUM4).
T3 sequence (Q8WUM4 1-868): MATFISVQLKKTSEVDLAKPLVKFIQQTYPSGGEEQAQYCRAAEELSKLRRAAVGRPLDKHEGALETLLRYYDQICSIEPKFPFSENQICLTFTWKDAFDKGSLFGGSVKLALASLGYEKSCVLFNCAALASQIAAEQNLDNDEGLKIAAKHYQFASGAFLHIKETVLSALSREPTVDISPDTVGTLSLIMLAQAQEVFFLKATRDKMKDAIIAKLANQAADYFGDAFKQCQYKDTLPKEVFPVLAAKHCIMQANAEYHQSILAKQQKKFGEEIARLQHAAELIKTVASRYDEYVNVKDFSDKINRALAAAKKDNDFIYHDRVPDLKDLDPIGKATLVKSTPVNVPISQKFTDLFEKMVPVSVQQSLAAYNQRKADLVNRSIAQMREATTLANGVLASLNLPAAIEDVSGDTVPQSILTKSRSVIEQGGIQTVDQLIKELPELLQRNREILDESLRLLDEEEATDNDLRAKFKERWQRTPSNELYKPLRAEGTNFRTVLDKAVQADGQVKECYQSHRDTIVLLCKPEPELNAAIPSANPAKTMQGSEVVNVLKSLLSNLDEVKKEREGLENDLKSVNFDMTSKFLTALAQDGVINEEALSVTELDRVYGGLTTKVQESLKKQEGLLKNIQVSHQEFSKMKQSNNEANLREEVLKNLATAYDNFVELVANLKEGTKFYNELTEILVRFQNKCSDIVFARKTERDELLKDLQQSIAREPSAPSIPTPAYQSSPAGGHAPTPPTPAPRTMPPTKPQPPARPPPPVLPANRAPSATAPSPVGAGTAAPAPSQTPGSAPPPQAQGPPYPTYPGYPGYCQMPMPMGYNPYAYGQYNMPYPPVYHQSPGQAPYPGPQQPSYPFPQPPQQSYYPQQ

Assay [10] deals with proteins of HEK293T cells transiently overexpressing caspase-6 (Homo sapiens, UniProt Q13148). As to conditions: Comp; protein TARDBP Q13148.
The target in assay [11] is proteins of HEK293T cells transiently overexpressing caspase-6 (Homo sapiens, UniProt Q12905). As to conditions: Comp; protein ILF2 Q12905.
The mark [12] stands for this setting: protein PNN (Q9H307), Exp Comp, analysis C6, p 0.5000, 2 peptides.
The mark [13] stands for this setting: protein SLC25A6 (P12236), Exp Comp, analysis C6, p 0.5000, 2 peptides.
Where [14] appears, read: protein PDCD6IP (Q8WUM4), Exp Comp, analysis C6, p 0.5000, 2 peptides.

proteins of HEK293T cells transiently overexpressing caspase-6 (Homo sapiens, UniProt Q9H307), sequence (Q9H307 whole entry): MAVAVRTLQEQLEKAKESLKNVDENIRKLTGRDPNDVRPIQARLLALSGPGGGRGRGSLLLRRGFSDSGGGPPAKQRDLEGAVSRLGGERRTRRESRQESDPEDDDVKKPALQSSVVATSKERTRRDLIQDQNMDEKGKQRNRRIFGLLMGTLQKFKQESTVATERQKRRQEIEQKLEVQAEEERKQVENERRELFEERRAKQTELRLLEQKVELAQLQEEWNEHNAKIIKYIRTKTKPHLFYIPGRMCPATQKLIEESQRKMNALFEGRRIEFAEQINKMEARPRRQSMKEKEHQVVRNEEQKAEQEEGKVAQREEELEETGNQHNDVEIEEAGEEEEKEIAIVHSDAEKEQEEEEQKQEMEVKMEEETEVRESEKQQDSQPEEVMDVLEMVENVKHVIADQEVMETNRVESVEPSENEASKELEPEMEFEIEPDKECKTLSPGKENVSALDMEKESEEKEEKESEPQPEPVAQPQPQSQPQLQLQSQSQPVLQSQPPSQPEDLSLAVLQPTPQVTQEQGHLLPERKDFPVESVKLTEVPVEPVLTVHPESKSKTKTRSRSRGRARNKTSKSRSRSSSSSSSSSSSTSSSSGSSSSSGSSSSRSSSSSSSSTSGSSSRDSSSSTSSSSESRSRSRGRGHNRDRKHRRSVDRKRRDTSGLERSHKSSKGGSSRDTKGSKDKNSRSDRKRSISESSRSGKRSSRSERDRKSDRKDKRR
proteins of HEK293T cells transiently overexpressing caspase-6 (Homo sapiens, UniProt Q13838), sequence (Q13838 whole entry): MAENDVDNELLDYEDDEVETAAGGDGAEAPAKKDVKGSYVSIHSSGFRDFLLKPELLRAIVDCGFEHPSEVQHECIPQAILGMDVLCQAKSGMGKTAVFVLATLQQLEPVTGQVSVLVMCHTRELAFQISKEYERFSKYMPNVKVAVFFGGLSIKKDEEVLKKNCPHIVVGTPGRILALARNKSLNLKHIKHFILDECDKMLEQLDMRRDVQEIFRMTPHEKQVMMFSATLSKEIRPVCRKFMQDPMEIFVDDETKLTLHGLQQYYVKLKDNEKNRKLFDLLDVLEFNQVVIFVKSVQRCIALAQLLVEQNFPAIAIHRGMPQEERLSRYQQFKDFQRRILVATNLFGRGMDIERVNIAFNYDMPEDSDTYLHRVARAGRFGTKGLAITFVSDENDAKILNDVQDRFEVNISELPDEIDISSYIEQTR
proteins of HEK293T cells transiently overexpressing caspase-6 (Homo sapiens, UniProt P05141), sequence (P05141 whole entry): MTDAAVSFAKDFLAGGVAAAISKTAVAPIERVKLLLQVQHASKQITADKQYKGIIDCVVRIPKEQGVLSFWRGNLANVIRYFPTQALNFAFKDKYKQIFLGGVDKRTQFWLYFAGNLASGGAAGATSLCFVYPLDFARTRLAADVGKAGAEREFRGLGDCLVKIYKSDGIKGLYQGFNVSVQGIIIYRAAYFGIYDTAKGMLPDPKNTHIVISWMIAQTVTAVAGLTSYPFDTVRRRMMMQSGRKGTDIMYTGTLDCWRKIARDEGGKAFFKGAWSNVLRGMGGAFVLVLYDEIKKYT
proteins of HEK293T cells transiently overexpressing caspase-6 (Homo sapiens, UniProt P35998), sequence (P35998 whole entry): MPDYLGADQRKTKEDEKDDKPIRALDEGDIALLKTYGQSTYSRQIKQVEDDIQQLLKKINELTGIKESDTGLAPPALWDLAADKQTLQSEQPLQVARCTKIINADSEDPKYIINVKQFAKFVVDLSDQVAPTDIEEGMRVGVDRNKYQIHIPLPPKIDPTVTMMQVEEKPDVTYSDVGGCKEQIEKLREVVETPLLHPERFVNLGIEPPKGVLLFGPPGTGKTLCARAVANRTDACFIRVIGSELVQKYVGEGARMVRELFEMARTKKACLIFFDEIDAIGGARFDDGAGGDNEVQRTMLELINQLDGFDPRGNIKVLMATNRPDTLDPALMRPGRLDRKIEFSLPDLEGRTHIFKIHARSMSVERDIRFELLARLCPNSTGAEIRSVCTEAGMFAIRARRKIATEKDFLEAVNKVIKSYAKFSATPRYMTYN
proteins of HEK293T cells transiently overexpressing caspase-6 (Homo sapiens, UniProt Q13148), sequence (Q13148 whole entry): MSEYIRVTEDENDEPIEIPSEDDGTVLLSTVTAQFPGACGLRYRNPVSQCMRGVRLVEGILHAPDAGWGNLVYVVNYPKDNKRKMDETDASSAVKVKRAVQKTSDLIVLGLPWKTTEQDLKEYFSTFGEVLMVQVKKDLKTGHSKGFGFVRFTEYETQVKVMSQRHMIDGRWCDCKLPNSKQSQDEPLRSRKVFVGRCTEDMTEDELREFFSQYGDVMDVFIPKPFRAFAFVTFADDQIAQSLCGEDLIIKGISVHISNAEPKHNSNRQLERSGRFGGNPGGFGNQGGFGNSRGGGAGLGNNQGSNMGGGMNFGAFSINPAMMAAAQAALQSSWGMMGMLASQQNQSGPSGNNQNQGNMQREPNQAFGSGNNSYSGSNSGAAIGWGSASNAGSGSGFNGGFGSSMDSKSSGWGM
proteins of HEK293T cells transiently overexpressing caspase-6 (Homo sapiens, UniProt P14625), sequence (P14625 22-803): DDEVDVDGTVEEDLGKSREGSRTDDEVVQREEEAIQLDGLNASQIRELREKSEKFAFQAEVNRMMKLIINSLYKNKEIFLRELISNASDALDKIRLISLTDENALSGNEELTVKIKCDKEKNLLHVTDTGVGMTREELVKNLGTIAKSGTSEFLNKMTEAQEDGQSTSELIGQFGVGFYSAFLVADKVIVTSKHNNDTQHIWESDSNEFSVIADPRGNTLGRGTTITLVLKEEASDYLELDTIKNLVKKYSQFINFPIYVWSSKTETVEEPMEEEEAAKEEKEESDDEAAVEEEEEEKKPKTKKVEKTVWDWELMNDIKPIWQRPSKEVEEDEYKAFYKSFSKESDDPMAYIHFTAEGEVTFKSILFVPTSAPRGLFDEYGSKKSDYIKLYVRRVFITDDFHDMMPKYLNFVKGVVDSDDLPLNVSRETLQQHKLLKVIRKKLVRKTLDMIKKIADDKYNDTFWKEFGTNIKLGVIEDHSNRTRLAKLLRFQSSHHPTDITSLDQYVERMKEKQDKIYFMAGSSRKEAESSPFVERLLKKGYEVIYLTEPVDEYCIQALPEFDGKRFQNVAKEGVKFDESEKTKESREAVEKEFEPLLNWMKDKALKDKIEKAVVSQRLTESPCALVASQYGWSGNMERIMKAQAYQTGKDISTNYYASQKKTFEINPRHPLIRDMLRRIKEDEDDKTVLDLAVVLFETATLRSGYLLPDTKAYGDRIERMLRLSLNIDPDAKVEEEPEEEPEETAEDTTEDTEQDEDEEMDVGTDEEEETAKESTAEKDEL
proteins of HEK293T cells transiently overexpressing caspase-6 (Homo sapiens, UniProt Q12905), sequence (Q12905 whole entry): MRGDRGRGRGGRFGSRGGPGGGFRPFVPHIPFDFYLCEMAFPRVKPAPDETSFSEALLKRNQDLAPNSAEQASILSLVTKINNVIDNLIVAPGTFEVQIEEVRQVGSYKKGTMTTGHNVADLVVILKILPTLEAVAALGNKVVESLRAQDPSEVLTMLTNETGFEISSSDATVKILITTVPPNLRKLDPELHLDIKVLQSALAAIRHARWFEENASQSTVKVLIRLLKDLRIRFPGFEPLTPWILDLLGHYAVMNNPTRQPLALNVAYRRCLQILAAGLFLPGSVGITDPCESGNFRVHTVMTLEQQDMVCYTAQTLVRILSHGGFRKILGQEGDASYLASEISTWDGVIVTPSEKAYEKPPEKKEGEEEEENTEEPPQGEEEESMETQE

Regarding `C=CS(=O)(=O)N1C[C@H](C(=O)Nc2ccc(OC(F)(F)F)cc2)C[C@@H](c2ccccc2)C1` [3a], the enrich.exp.med in [1] is on record as 0.6915; in assay [2] (Comp, protein PNN Q9H307), 1.018; in assay [3] (Comp, protein SLC25A6 P12236), 3.139; in assay [4], 0.924; in assay [5], 0.6768; in [6], 0.7874. The enrich.exp.med in [7] was determined as 0.583; in assay [8], 0.6101; in [9] (Comp, protein PDCD6IP Q8WUM4), 1; in assay [10], 0.8327; in assay [11] it was 0.7326. Moreover, the figures for the enrich.exp.med.lin in [2] (setting [12]), in assay [3] (setting [13]) and in [9] (setting [14]) were 2.025, 8.81 and 2, respectively. Besides, the figures for the enrich.exp.med.log2 in assay [2] (setting [12]), in assay [3] (setting [13]) and in assay [9] (setting [14]) were 1.018, 3.139 and 1, respectively.
